Earlier results on 2 compounds are cited in patent publication US11786526B2, “Pharmaceutical composition comprising rosuvastatin and ezetimibe and a preparation method thereof” (SANOFI, priority 2016, dated 2023).

Molecules are shown by their SMILES.

Test in series [1]: not given
The source holds these as a separate data set.

As to `CC(C)c1nc(N(C)S(C)(=O)=O)nc(-c2ccc(F)cc2)c1/C=C/[C@@H](O)C[C@@H](O)CC(=O)O` [rosuvastatin, (3R,5S,6E)-7-[4-(4-fluorophenyl)-2-(N-methylmethanesulfonamido)-6-(propan-2-yl)pyrimidin-5-yl]-3,5-dihydroxyhept-6-enoic acid], the “Stability in an acidic environment” value is “unstable in an acidic environment”. Regarding `O=C1[C@H](CC[C@H](O)c2ccc(F)cc2)[C@@H](c2ccc(O)cc2)N1c1ccc(F)cc1` [Ezetimibe, (3R,4S)-1-(4-fluorophenyl)-3-[(3S)-3-(4-fluorophenyl)-3-hydroxypropyl]-4-(4-hydroxyphenyl)azetidin-2-one], the Solubility in water entry in series [1] is listed as “almost insoluble in water”.
